Measured values: EPA's ToxValDB 9.5 (doi:10.2903/j.efsa.2012.2945)
≈ marks a conversion by molar mass, not a printed value.

Legend:
Typhlodromus pyri = assay: LR50; higher = less toxic; conditions: acute; duration: 48 hours; mortality
Aphidius rhopalosiphi = assay: LR50; higher = less toxic; conditions: acute; duration: 48 hours; mortality
Cyprinus carpio = conditions: acute; duration: 96 hours; mortality
Colinus virginianus = conditions: acute, oral, mortality
Daphnia magna = conditions: chronic/long-term; duration: 21 days; mortality
Neomysis kadiakensis = conditions: chronic/long-term; duration: 28 days; reproduction
Mus musculus = conditions: acute; oral; mortality
Pimephales promelas = conditions: chronic/long-term; duration: 32 days; growth
Apis mellifera = conditions: acute; duration: 24 hours; oral; unspecified; mortality
Anas platyrhynchos = conditions: oral, mortality
Tagia sp. = conditions: acute; duration: 14 days; mortality

| Structure (SMILES) | NOAEL (Rattus norvegicus; developmental, development) [mg/kg-day] | LR50 (Typhlodromus pyri) [g/ha] | LR50 (Aphidius rhopalosiphi) [g/ha] | LC50 (Cyprinus carpio) [µg/mL] | LC50 (Colinus virginianus; diet) [mg/kg-day] | LD50 (Colinus virginianus) [mg/kg-day] | NOAEL (Rattus norvegicus; chronic, duration: 2 years) [mg/kg-day] | NOAEL (Rattus norvegicus; reproduction developmental, reproduction) [mg/kg-day] | NOAEL (Rattus norvegicus; subchronic, duration: 90 days, oral) [mg/kg-day] | NOEC (Daphnia magna) [mg/L] | NOEC (Neomysis kadiakensis) [mg/L] | LD50 (Mus musculus) [mg/kg-day] | NOEC (Pimephales promelas) [mg/L] | LD50 (Apis mellifera) [µg/piece] | LD50 (Anas platyrhynchos; acute, unspecified) [mg/kg-day] | LC50 (Anas platyrhynchos; short-term, feed) [mg/kg-day] | LC50 (Tagia sp.) [mg/kg] |
| --- | --- | --- | --- | --- | --- | --- | --- | --- | --- | --- | --- | --- | --- | --- | --- | --- | --- |
| O=c1ccc(C(F)(F)F)c[nH]1 [5-(Trifluoromethyl)pyridin-2(1H)-one] | 60 | – | – | – | – | – | – | – | – | – | – | – | – | – | – | – | – |
| CCCCOC(=O)[C@@H](C)Oc1ccc(Oc2ccc(C(F)(F)F)cn2)cc1 [Fluazifop-P-butyl] | 2 | 5.6 | 177 | 1.31 (≈ 3.42 µM) | > 1070 | > 2000 | 1 | 6.72 | 0.9 | 0.25 | 0.0477 | > 2000 | 0.077 | > 200 | > 3960 | > 942 | > 1000 |
| CC(Oc1ccc(Oc2ccc(C(F)(F)F)cn2)cc1)C(=O)O (centres undefined) [Fluazifop] | – | – | – | – | – | – | 1 | – | – | – | – | – | – | – | – | – | – |
